Data taken from patent US5258406A, “Sulfonimidamides” (priority 1992, dated 1993).

Legend:
VRC5 = type: in vivo; details: oral, 50 mg/kg, BIDX 10
Description: The compounds were tested in C3H mice bearing a 6C3HED lymphosarcoma, also known as the Gardner lymphosarcoma (GLS), and in a variety of human tumor xenografts in CD1 nu/nu mice, including CX-1, LX-1, HXGC3, and VRC5. The 6C3HED lymphosarcoma was obtained from the Division of Cancer Treatment, National […] Institute, Tumor Bank, maintained at E. G. and G. Mason Research (Worcester, Mass.). The CX-1 human colon carcinoma and the LX-1 human lung carcinoma xenografts were obtained from the National Cancer Institute. The HXGC3 and VRC5 human colon xenografts were obtained from Dr. P. J. Houghton, St. Jude Children's Hospital in Memphis (see Br. J. Cancer, 37, 213 (1978)). First passage tumor was stored in liquid nitrogen using standard techniques. The transplanted tumor was reestablished from the Tumor Bank every six months or as needed. The tumor was maintained by serial passage twice weekly in C3H mice.
In the procedure the tumor was removed from passage animals and minced into 1- to 3-mm square fragments using sterile techniques. Tumor pieces were checked for sterility using both Antibiotic Medium 1 and Brain Heart Infusion (Difco, Detroit, Mich.). Recipient mice were shaved and tumor pieces were implanted subcutaneously in the auxiliary region by trocar. Drug therapy on the appropriate schedule was initiated on the day after tumor implant for 6C3HED and after a seven (7) day delay for xenografts (or other delay as noted in Table 2). The compound being tested was mixed with 2.5% Emulphor EL620 from GAF Corporation (1:40 dilution in saline). Food and water were provided ad libitium. The drug was administered orally in 0.5 ml of 2.5% Emulphor (unless otherwise indicated). The tumor was measured the day after treatment ended with two dimensional measurements (width and length) of the tumor taken using automated digital calipers interfaced to a microcomputer. Approximate weight for the tumor was calculated using the following formula [Worzalla, J. F., et al., Invest. New Drugs, 8, 241 (1990], (tumor weight in mg)=(width in mm)^2 ×(length in mm)/2.
At least one control group of an equal number of mice was treated with the same volume of 2.5% Emulphor only. The percent inhibition was determined by subtracting the ratio of the mean tumor size of the test group relative to the control group from one and multiplying the result times 100.
The results of several experiments in mice bearing a 6C3HED lymphosarcoma (or other tumor where indicated) when the indicated compounds were administered are provided in Table 2. In Table 2, column 1 gives the Example number of the compound used, column 2 lists the dose level in mg/kg, column 3 provides the percent inhibition of tumor growth, column 4 gives the number of mice which died relative to the total number of animals in the group, column 5 gives the method of administration of the compound, and column 6 gives the dosage schedule. The protocol used with other tumors was the same as with the 6C3HED lymphosarcoma.

6C3HED lymphosarcoma = assay: animal or person; type: in vivo; details: for Tox/Tot (mice which died / total): oral, BIDX 10

## CCCCN=S(=O)(NC(=O)Nc1ccc(Cl)cc1)c1ccc(C)cc1 (stereo not shown) [Example 7, N-[[(4-chlorophenyl)amino]carbonyl]-N'-butyl-4-methylbenzenesulfonimidamide]
VRC5
  % inhibition of tumor growth: 0%
  Tox/Tot (mice which died / total): 0/10
6C3HED lymphosarcoma; Mus musculus, 6C3HED, po, read-out: % inhibition of tumor growth, oral, 18.75 mg/kg, BIDX 10
  inhibition in vivo at 18.75 mg/kg: 21%
6C3HED lymphosarcoma; Mus musculus, 6C3HED, po, read-out: % inhibition of tumor growth, oral, 37.5 mg/kg, BIDX 10
  inhibition in vivo at 37.5 mg/kg: 45%
6C3HED lymphosarcoma; Mus musculus, 6C3HED, po, read-out: % inhibition of tumor growth, oral, 75 mg/kg, BIDX 10
  inhibition in vivo at 75 mg/kg: 69%
6C3HED lymphosarcoma; Mus musculus, 6C3HED, po, read-out: % inhibition of tumor growth, oral, 150 mg/kg, BIDX 10
  inhibition in vivo at 150 mg/kg: 88%
6C3HED lymphosarcoma; 18.75 mg/kg
  Tox/Tot (mice which died / total): 0/10
6C3HED lymphosarcoma; 37.5 mg/kg
  Tox/Tot (mice which died / total): 0/10
6C3HED lymphosarcoma; 75 mg/kg
  Tox/Tot (mice which died / total): 0/10
6C3HED lymphosarcoma; 150 mg/kg
  Tox/Tot (mice which died / total): 0/10
